According to article PMC11201828, “A Novel Dimeric Short Peptide Derived from α-Defensin-Related Rattusin with Improved Antimicrobial and DNA-Binding Activities” (Biomolecules, 2024):
In brackets after ≈: the same amount, converted by molar mass. Where two headings read alike, the source gives them in different places. Positions of bridges follow the written chain, without caps; N, C: chain ends. Residues, ends and D or L forms follow the SMILES beside them. Chains are numbered I, II in the order given. No end group written: not given here.

Experiments:
[1] = system: Staphylococcus epidermidis; format: cell-based; settings: 24 h
Protocol: (§1) The minimal inhibitory concentrations (MICs) of the peptides were determined following the broth microdilution method recommended by the Clinical and Laboratory Standards Institute (CLSI). Briefly, bacteria in their mid-logarithmic growth phase were diluted in Mueller–Hinton broth (MHB) (Difco, Franklin Lakes, NJ, USA) and aliquoted into a 96-well microtiter plate at a density of 4 × 10^6 CFU/well. The assay included both Gram-negative bacteria (Escherichia coli, Salmonella typhimurium, and Pseudomonas aeruginosa) and Gram-positive bacteria (Bacillus subtilis, Staphylococcus aureus, and Staphylococcus epidermidis), as well as methicillin-resistant Staphylococcus aureus strains (MRSA: CCARM 3089, CCARM 3090, CCARM 3095). The samples were subjected to a two-fold serial dilution before being added to the wells, and the plate was incubated at 37 °C for 24 h. The MIC was defined as the lowest peptide concentration that prevented visible bacterial growth. All experiments were conducted in triplicate and included appropriate growth and sterility controls.

[2] = system: bacterial strains; format: cell-based; settings: strain not given; see Tables 1 and 2
Protocol: as §1

[3] = system: Pseudomonas aeruginosa; format: cell-based; settings: 24 h
Protocol: as §1

[4] = system: Staphylococcus aureus; format: cell-based; settings: 24 h
Protocol: as §1

[5] = system: Escherichia coli; format: cell-based; settings: 24 h
Protocol: as §1

[6] = system: Bacillus subtilis; format: cell-based; settings: 24 h
Protocol: as §1

[7] = system: Salmonella typhimurium; format: cell-based; settings: 24 h
Protocol: as §1

[8] = system: MRSA CCARM 3089; format: cell-based, methicillin-resistant Staphylococcus aureus; settings: CCARM 3089, 24 h
Protocol: as §1

[9] = system: MRSA CCARM 3095; format: cell-based, methicillin-resistant Staphylococcus aureus; settings: CCARM 3095, 24 h
Protocol: as §1

[10] = system: MRSA CCARM 3090; format: cell-based, methicillin-resistant Staphylococcus aureus; settings: CCARM 3090, 24 h
Protocol: as §1

[11] = system: S. aureus cell membranes; experiment: SYTOX Green uptake assay; format: cell-based, Staphylococcus aureus; settings: 32 µM F2, 4 µM melittin, 16 µM buforin-2, Figure 3
Protocol: The membrane permeabilization activity of the peptides was determined using the SYTOX Green uptake assay, as described previously. S. aureus was cultured in LB broth at 37 °C until it reached an optical density (O.D.) at 600 nm of 0.4, indicative of the mid-logarithmic phase. The cells were then washed and diluted to an O.D. 600 of 0.05 using 1× PBS buffer. The dye (SYTOX Green nucleic acid stain) was added to the bacterial suspension at a concentration of […], and the mixture was incubated at 4 °C for 18 h with agitation in the dark. The SYTOX Green-treated bacteria were placed in a quartz cell, where they were simultaneously exposed to the positive control melittin (2× MIC), the negative control buforin-2 (2× MIC), and the F2 dimer (2× MIC). An F-4500 FL fluorescence spectrophotometer (Shimadzu, Kyoto, Japan) was used to monitor fluorescence (excitation 485 nm, emission 520 nm).

[12] = system: S. aureus cytoplasmic membrane; experiment: Membrane depolarization assay, DiSC3-(5) dye; format: cell-based, Staphylococcus aureus; settings: intact S. aureus; 32 µM F2, 4 µM melittin, 16 µM buforin-2; peptide added after 300 s; Figure 2
Protocol: The cytoplasmic membrane depolarization activity of the peptides was assessed using the membrane-potential-sensitive dye DiSC3-(5), following methodologies previously described in the literature. Staphylococcus aureus was cultured in Luria–Bertani (LB) broth at 37 °C until reaching an optical density (O.D.) at 600 nm of 0.3–0.4, indicative of mid-logarithmic phase growth. The cells were then washed with a buffer containing 20 mM glucose and 5 mM HEPES, and the cell suspension was diluted to an O.D. 600 of 0.05 in the same buffer. Potassium chloride (KCl) was added to achieve a final concentration of 100 mM to equilibrate potassium ion levels. The concentrations used for each peptide in our membrane depolarization assays were based on their respective MICs: 32 µM for F2, 4 µM for Melittin, and 16 µM for Buferin-2.
Fluorescence was monitored using an F-4500 FL fluorescence spectrophotometer (Shimadzu, Kyoto, Japan) with excitation and emission wavelengths set at 622 nm and 670 nm, respectively. Melittin, known for its membrane-disrupting properties, served as a positive control, while buforin-2, which translocates across membranes without causing depolarization, acted as a negative control. Both melittin and buforin-2 were tested at concentrations twice their minimal inhibitory concentration (MIC) levels.

[13] = system: E. coli ML-35; experiment: ONPG hydrolysis assay (inner membrane permeability); format: cell-based, Escherichia coli; settings: 32 µM F2, 4 µM melittin, 16 µM buforin-2, Figure 4
Protocol: The internal membrane permeability was assessed using the ONPG hydrolysis assay, as described previously. E. coli ML-35p, which constitutively expresses cytoplasmic β-galactosidase and periplasmic β-lactamase, is resistant to ampicillin and deficient in lactose permease. E. coli ML-35 was incubated in LB broth containing ampicillin at 37 °C until the optical density (O.D.) at 600 nm reached 1.0. The cells were then washed with a buffer consisting of 97% 1× PBS and 3% LB and diluted to an O.D. 600 of 0.4 in the same buffer. A mixture of 50 μL of serially diluted peptide and 20 μL of dye (ONPG, final concentration 3 mM) was added to 100 μL of the bacterial suspension in a sterilized 96-well plate. Melittin served as a positive control, while buforin-2 was used as a negative control. The hydrolysis of ONPG was measured using a PHOMO Elisa reader (Autobio, Zhengzhou, China) at 405 nm for each time period.

[14] = system: plasmid DNA (pHIS2); experiment: DNA-binding gel retardation assay; settings: plasmid pHIS2 145 μg/mL, 37 °C, 1 h, 1% agarose gel; Figure 5
Protocol: We evaluated the DNA-binding ability of F2 and F2 (C4S) monomeric peptides using gel retardation experiments. The concentration of plasmid DNA (pHIS2) was fixed at 145 μg/mL. The peptide was serially diluted in a binding buffer consisting of 10 mM Tris-HCl (pH 8.0), 5% glucose, 50 μg/mL BSA, 1 mM EDTA, and 20 mM KCl. This solution was then mixed with the DNA and incubated at 37 °C for 1 h. After incubation, the DNA–peptide mixture was stained with DNA gel loading dye. The samples were analyzed using 1% agarose gel electrophoresis in 0.5× TAE buffer. Plasmid bands were detected with a UV illuminator (Bio-Rad, Hercules, CA, USA).

| Compound | MIC [2] | MIC [4] | MIC [5] | MIC [8] | MIC [9] | MIC [10] | other results |
| --- | --- | --- | --- | --- | --- | --- | --- |
| CC(C)[C@@H]1NC(=O)[C@H](CCCNC(=N)N)NC(=O)[C@H](CCCNC(=N)N)NC(=O)[C@H]([C@@H](C)O)NC(=O)[C@H](CC(N)=O)NC(=O)[C@H](CCCNC(=N)N)NC(=O)[C@@H](NC(=O)[C@@H](NC(=O)[C@H](CCCNC(=N)N)NC(=O)[C@@H](N)CCCNC(=N)N)C(C)C)CSSC[C@@H](C(=O)N[C@@H](CCCNC(=N)N)C(=O)N[C@@H](CC(N)=O)C(=O)N[C@H](C(N)=O)[C@@H](C)O)NC1=O [F2-AH] (H-RRVCRNTRRVCRNT-NH2; disulfide 4-11; N-terminus assumed) | 15 µg/mL (≈ 8.39 µM) | 29 µg/mL (≈ 16.2 µM) | 15 µg/mL (≈ 8.39 µM) | 29 µg/mL (≈ 16.2 µM) | 58 µg/mL (≈ 32.5 µM) | 29 µg/mL (≈ 16.2 µM) | MIC [1]: 15 µg/mL (≈ 8.39 µM); MIC [3]: 15 µg/mL (≈ 8.39 µM); MIC [6]: 29 µg/mL (≈ 16.2 µM); MIC ([7]; murium): 15 µg/mL (≈ 8.39 µM) |
| CC(C)[C@H](NC(=O)[C@@H]1CSSC[C@H](NC(=O)[C@@H](NC(=O)[C@H](CCCNC(=N)N)NC(=O)[C@@H](N)CCCNC(=N)N)C(C)C)C(=O)N[C@@H](CCCNC(=N)N)C(=O)N[C@@H](CC(N)=O)C(=O)N[C@@H]([C@@H](C)O)C(=O)N[C@@H]([C@@H](C)O)C(=O)N[C@@H](CC(N)=O)C(=O)N[C@@H](CCCNC(=N)N)C(=O)N1)C(=O)N[C@@H](CCCNC(=N)N)C(=O)N[C@@H](CCCNC(=N)N)C(N)=O [F2-PH] (H-RRVCRNTTNRCVRR-NH2; disulfide 4-11; N-terminus assumed) | 15 µg/mL (≈ 8.39 µM) | 29 µg/mL (≈ 16.2 µM) | 15 µg/mL (≈ 8.39 µM) | 29 µg/mL (≈ 16.2 µM) | 29 µg/mL (≈ 16.2 µM) | 58 µg/mL (≈ 32.5 µM) | MIC [1]: 15 µg/mL (≈ 8.39 µM); MIC [3]: 15 µg/mL (≈ 8.39 µM); MIC [6]: 29 µg/mL (≈ 16.2 µM); MIC ([7]; murium): 15 µg/mL (≈ 8.39 µM) |
| CC[C@H](C)[C@H](NC(=O)[C@@H]1CSSC[C@H](NC(=O)[C@H](CCC(N)=O)NC(=O)[C@@H](N)CC(C)C)C(=O)N[C@@H](CO)C(=O)N[C@H]2CSSC[C@H](NC(=O)[C@H]([C@@H](C)O)NC(=O)[C@H](CC(N)=O)NC(=O)[C@H](CCCNC(=N)N)NC(=O)[C@@H]3CSSC[C@H](NC(=O)[C@H](C(C)C)NC(=O)[C@H](CCCNC(=N)N)NC(=O)[C@H](CCCNC(=N)N)NC2=O)C(=O)N[C@@H](CCCNC(=N)N)C(=O)N[C@@H](CC(N)=O)C(=O)N[C@@H]([C@@H](C)O)C(=O)N[C@H]2CSSC[C@H](NC(=O)[C@H](CO)NC(=O)[C@@H](NC(=O)[C@H](CCC(N)=O)NC(=O)[C@@H](N)CC(C)C)CSSC[C@@H](C(=O)N[C@H](C(=O)N[C@@H](CCCNC(=N)N)C(N)=O)[C@@H](C)CC)NC(=O)[C@H](CO)NC2=O)C(=O)N[C@@H](CCCNC(=N)N)C(=O)N[C@@H](CCCNC(=N)N)C(=O)N[C@@H](C(C)C)C(=O)N3)C(=O)N[C@@H](CO)C(=O)N1)C(=O)N[C@@H](CCCNC(=N)N)C(N)=O [F4] (I: H-LQCSCRRVCRNTCSCIR-NH2 / II: H-LQCSCRRVCRNTCSCIR-NH2; disulfide I:3-II:15, I:5-II:13, I:9-II:9, I:13-II:5, I:15-II:3 (inferred); N-terminus assumed) | – | 64 µg/mL (≈ 16 µM) | 32 µg/mL (≈ 8.02 µM) | – | – | – | – |
| CC[C@H](C)[C@H](NC(=O)CN)C(=O)NCC(=O)N[C@@H](C)C(=O)N[C@H](C(=O)N[C@@H](CC(C)C)C(=O)N[C@@H](CCCCN)C(=O)N[C@H](C(=O)N[C@@H](CC(C)C)C(=O)N[C@H](C(=O)N[C@H](C(=O)NCC(=O)N[C@@H](CC(C)C)C(=O)N1CCC[C@H]1C(=O)N[C@@H](C)C(=O)N[C@@H](CC(C)C)C(=O)N[C@H](C(=O)N[C@@H](CO)C(=O)N[C@@H](Cc1c[nH]c2ccccc12)C(=O)N[C@H](C(=O)N[C@@H](CCCCN)C(=O)N[C@@H](CCCNC(=N)N)C(=O)N[C@@H](CCCCN)C(=O)N[C@@H](CCCNC(=N)N)C(=O)N[C@@H](CCC(N)=O)C(=O)N[C@@H](CCC(N)=O)C(N)=O)[C@@H](C)CC)[C@@H](C)CC)[C@@H](C)O)[C@@H](C)O)C(C)C)C(C)C [Melittin] | – | – | – | – | – | – | SYTOX Green uptake (fluorescence intensity) [11]: significant increase in fluorescence intensity; cytoplasmic membrane depolarization (DiSC3-(5) fluorescence) [12]: complete depolarization; ONPG hydrolysis (absorbance at 405 nm) [13]: change in absorbance |
| Buforin-2 | – | – | – | – | – | – | SYTOX Green uptake (fluorescence intensity) [11]: did not show a similar increase in fluorescence intensity; cytoplasmic membrane depolarization (DiSC3-(5) fluorescence) [12]: failed to induce any change in membrane potential; ONPG hydrolysis (absorbance at 405 nm) [13]: did not alter the absorbance; peptide concentration giving DNA band retardation [14]: 2 µM |
| IRLSRSTYAS-NH2 [F3] | > 590 µg/mL | >590 µg/mL | >590 µg/mL | – | – | – | – |
| LRVRRTLQ-NH2 [F1] | – | >500 µg/mL | 67 µg/mL | – | – | – | – |
| RRVSRNT-NH2 [F2 (C15S)] | > 227 µg/mL | – | – | >114 µg/mL | >114 µg/mL | >114 µg/mL | MIC ([1]; Staphylococcus epidermidis, broth microdilution, MHB, 37 °C, triplicate): >227 µg/mL; MIC ([3]; Pseudomonas aeruginosa, broth microdilution, MHB, 37 °C, triplicate): >227 µg/mL; MIC ([4]; Staphylococcus aureus, broth microdilution, MHB, 37 °C, triplicate): >227 µg/mL; MIC ([5]; Escherichia coli, broth microdilution, MHB, 4 × 10^6 CFU/well, 37 °C, triplicate, no deviations): >227 µg/mL; MIC ([6]; Bacillus subtilis, broth microdilution, MHB, 37 °C, triplicate): >227 µg/mL; MIC ([7]; Salmonella typhimurium, broth microdilution, MHB, 37 °C, triplicate): >227 µg/mL; peptide concentration giving DNA band retardation [14]: > 16 µM |
